Calls of active or inactive are those of the source. No cut-off for these calls is given here.
What was measured:
[1] = system: Brontispa longissima; test: Insecticidal activity against Brontispa longissima Gestro at 100 ug/ml; assay type: functional, organism-based
[2] = system: Brontispa longissima; test: Insecticidal activity against Brontispa longissima Gestro at 100 ug/ml after 72 hrs; assay type: functional
[3] = system: Brontispa longissima; test: Insecticidal activity against Brontispa longissima Gestro at 100 ug/ml after 96 hrs; assay type: functional

CC[C@H](C)C(=O)O[C@H]1[C@@]2(C)C[C@@]3(OC(=O)[C@@H](C)CC)[C@](C)([C@H]4CC[C@]5(C)C(=C4C(=O)[C@@]13O)CC(=O)O[C@H]5c1ccoc1)[C@H]2CC(=O)OC
Activity [1]: inactive

CC[C@H](C)C(=O)O[C@@]12C[C@]3(C)[C@H](OC(=O)C(C)C)[C@]1(O)C(=O)C1=C(CC[C@]4(C)C1=CC(=O)O[C@H]4c1ccoc1)[C@]2(C)[C@H]3CC(=O)OC [MOLUCCENSINS H]
Activity [2]: 20.7% | Activity [3]: 27.6%

CC[C@H](C)C(=O)O[C@@]12C(=O)C3=C4CC(=O)O[C@@H](c5ccoc5)[C@]4(C)CC[C@@H]3[C@]3(C)[C@@H](CC(=O)OC)[C@](C)(C[C@@]31O)[C@@H]2OC(=O)C(C)C
Activity [1]: inactive

CC[C@H](C)C(=O)O[C@@]12C(=O)C3=C(CC[C@]4(C)C3=CC(=O)O[C@H]4c3ccoc3)[C@]3(C)[C@@H](CC(=O)OC)[C@](C)(C[C@]13O)[C@@H]2OC(=O)C(C)C
Activity [1]: inactive
